Measured values reported in US20190255083A1 (priority 2011, published 2019).

Assays:
[1] = test system: purified bacterial strains isolated from human microbiota (Table 1: Bifidobacterium longum, Bacteroides vulgatus, Bacteroides fragilis, Clostridium …); type: cell-based, bacterial isolates, mainly from human (infant) feces; conditions: for growth (optical density, OD 600 nm) of individual bacterial isolates / final culture pH of individual bacterial isolates: 2 g/L 2′-FL, 3-FL, LDFT or FOS, 5 g/L HMOS, ZMB1 medium, for most of these bacteria; for growth (optical density, OD 600 nm) of individual bacterial isolates / final culture pH of individual bacterial isolates / decrease in culture pH compared with FOS: 48 h; for growth (optical density, OD 600 nm) of individual bacterial isolates: anaerobic, 37° C.; for decrease in culture pH compared with FOS: 2 g/L each, in most cases; for production of lactic acid: summary statement, for FOS: fecal slurrys and individual bacteria of the human microbiome
[2] = test system: pathogenic strains of Campylobacter; conditions: background statement; cited from earlier work
[3] = test system: mixed microbiota of three infants (fecal slurry); assay: Anaerobic culture of infant fecal microbiota with oligosaccharide substrate; type: cell-based, human infant feces; conditions: 24 h
Method: First, the impact of 2′-FL and HMO were examined on fresh samples of mixed microbiota of three infants. A carbohydrate-free basal medium was prepared according to Hughes (Hughes S, et al. 2008 FEMS Microbiol Ecol, 64(3): 482-93) to study the growth of fecal bacteria during fermentation of human milk oligosaccharides (HMO) or 2′-FL. This basal medium contained per liter: 2 g peptone (Oxoid Ltd., Basingstoke, UK), 2 g yeast extract (Oxoid), 0.1 g NaCl, 0.04 g K2HPO4, 0.01 g MgSO4.7H2O, 0.01 g CaCl2.6H2O, 2 g NaHCO3, 0.005 g haemin (Sigma), 0.5 g L-cysteine HCl (Sigma), 0.5 g bile salts (Oxoid), 2 ml Tween 80, 10 μl vitamin K (Sigma), and 4 ml of 0.025% (w/v) resazurin solution. Anaerobic culture methods were those described in Bryant (Bryant, M 1972 Am J Clin Nutr, 25(12): 1324-8) using Hungate culture tubes, sealed with butyl rubber septa. Media were prepared and maintained anaerobically using O2-free CO2.
Fresh fecal samples were collected from three healthy babies, identified as A, B and C, who had not received antibiotics or pre/probiotics and had no history of gastrointestinal disorder. Fresh human infant feces were added to phosphate-buffered sterile anaerobic saline solution (1:10 feces to saline), mixed in a blender for 60 s, homogenized and filtered through a double layer of sterile cheesecloth. 2 g/L 2′FL and 5 g/L HMO were dissolved for 1 hour in medium before inoculation with 10% (v/v) fecal slurry prepared as above. Hungate tubes containing 2′-FL or HMO were inoculated with fecal material, serving as the treatment. Hungate tubes containing no substrate were also inoculated with feces, to serve as negative control. All tubes were incubated at 37° C. Culture supernatant samples were taken at 24 h. All samples were stored at −20° C. for further analysis. FIGS. 1, 2 and 3 show the results. Prebiotics are associated with an increase in the numbers of microbiota, especially bifidobacteria and lactobacilli, a decrease in gut pH, and an increase in lactic acid. […] These changes are all characteristic of prebiotics.

Substance	growth (optical density, OD 600 nm) of individual bacterial isolates [1]	final culture pH of individual bacterial isolates [1]	decrease in culture pH compared with FOS [1]	production of lactic acid [1]	Campylobacter binding and infectivity [2]	pH of infant microbiota cultures ([3]; 2′-FL 2 g/L, HMOS 5 g/L, three microbial communities, FIG. 2)	lactic acid produced in infant microbiota cultures ([3]; 2′-FL 2 g/L, HMOS 5 g/L, three microbial communities, compared to controls, FIG. 3)	total bacteria (bacterial growth) in infant microbiota cultures ([3]; 2′-FL at 2 g/L, HMOS at 5 g/L, fecal slurry of 3 infants (A, B, C), 37° C., anaerobic, vs no-substrate control, FIG. 1)
3-fucosyllactose [3-FL]	growth was stimulated (to various degrees)	the pH of cultures decreased	at least as great	induce the production of lactic acid				
lactodifucotetraose [LDFT]	growth was stimulated (to various degrees)	the pH of cultures decreased	at least as great	induce the production of lactic acid				
2′-fucosyllactose [2′-FL]	growth was stimulated (to various degrees)	the pH of cultures decreased	at least as great	induce the production of lactic acid	inhibited	pH is reduced	significantly higher amounts of lactic acid are produced compared to controls	induced an increase in total bacteria
